Source: ChEMBL document CHEMBL1134916, “Synthesis and evaluation of 7-substituted-3-cyclobutylamino-4H-1,2,4-benzothiadiazine-1,1-dioxide derivatives as K(ATP) channel agonists” (Bioorg Med Chem Lett, 2002)

Assays:
[1] = Acid dissociation constant was determined; assay type: ADME
[2] = biological target: T1, Sulfonylurea receptor 1, Kir6.2 (Homo sapiens, UniProt Q09428+Q14654); test: Inhibition of Beta-cell KATP channel; assay type: functional
[3] = biological target: Sulfonylurea receptor 1, Kir6.2 (Homo sapiens) (UniProt Q14654+Q09428); test: Percentage of maximal agonistic response of Beta-cell KATP channel as compared to diazoxide (50 uM); assay type: functional
[4] = biological target: T1, Sulfonylurea receptor 1, Kir6.2; test: Negative log EC50 for Beta-cell KATP channel; assay type: functional

T1 sequence (Q14654 whole entry): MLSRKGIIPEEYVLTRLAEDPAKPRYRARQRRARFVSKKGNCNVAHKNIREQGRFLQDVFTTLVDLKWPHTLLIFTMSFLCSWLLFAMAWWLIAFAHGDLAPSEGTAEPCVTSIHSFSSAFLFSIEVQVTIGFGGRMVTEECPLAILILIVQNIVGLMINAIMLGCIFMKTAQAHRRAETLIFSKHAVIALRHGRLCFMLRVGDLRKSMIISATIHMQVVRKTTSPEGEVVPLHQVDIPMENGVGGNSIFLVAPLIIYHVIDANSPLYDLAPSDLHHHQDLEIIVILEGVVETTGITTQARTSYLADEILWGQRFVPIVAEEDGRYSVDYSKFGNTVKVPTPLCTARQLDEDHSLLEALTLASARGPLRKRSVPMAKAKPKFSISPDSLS
T1 sequence (Q09428 whole entry): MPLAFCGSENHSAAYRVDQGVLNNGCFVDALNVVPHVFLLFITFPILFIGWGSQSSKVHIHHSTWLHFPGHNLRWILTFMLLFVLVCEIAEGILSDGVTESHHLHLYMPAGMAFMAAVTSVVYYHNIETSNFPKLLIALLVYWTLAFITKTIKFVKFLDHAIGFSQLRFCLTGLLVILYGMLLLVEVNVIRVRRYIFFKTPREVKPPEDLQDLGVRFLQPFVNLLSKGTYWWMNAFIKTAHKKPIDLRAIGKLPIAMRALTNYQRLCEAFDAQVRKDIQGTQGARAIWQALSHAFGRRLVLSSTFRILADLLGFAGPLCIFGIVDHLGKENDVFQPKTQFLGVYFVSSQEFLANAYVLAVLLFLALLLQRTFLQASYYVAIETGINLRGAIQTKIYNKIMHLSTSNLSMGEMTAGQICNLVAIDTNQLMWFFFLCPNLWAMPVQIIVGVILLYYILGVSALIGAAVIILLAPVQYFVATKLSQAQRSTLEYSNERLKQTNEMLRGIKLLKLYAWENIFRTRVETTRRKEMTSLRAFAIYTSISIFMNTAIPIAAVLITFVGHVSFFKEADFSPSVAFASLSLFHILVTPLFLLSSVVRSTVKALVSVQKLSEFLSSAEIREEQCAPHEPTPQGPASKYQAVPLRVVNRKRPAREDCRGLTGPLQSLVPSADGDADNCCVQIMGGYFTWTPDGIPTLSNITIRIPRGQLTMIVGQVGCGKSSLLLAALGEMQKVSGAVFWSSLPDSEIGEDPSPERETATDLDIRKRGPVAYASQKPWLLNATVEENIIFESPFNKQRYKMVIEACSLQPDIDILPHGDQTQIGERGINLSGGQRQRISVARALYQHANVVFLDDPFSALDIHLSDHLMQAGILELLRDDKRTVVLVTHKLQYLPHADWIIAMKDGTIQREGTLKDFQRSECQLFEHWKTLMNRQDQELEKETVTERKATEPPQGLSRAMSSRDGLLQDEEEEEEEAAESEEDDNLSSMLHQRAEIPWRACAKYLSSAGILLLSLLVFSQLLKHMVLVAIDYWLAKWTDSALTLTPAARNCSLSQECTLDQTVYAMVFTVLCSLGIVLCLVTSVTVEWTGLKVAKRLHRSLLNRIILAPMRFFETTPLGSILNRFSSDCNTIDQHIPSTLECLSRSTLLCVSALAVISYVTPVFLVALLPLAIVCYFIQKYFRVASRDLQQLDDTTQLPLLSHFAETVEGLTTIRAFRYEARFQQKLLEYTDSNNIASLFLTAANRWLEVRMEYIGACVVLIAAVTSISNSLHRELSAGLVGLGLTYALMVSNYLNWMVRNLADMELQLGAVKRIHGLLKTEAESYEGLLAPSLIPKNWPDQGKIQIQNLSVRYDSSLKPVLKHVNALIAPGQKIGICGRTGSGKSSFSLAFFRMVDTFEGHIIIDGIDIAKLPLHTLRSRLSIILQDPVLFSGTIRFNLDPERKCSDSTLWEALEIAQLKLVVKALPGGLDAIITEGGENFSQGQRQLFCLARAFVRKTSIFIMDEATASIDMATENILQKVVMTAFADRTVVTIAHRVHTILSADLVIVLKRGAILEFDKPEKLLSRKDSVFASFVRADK

Row | Structure (SMILES) | pKa [1] | EC50 [2] [µM] | Max [3] [%] | EC50 [4] [µM]
1 | O=[N+]([O-])c1ccc2c(c1)S(=O)(=O)NC(NC1CCC1)=N2 | 7.89 | 0.53 | 30.9 | –
2 | O=S1(=O)N=C(NC2CCC2)Nc2ccc(Cl)cc21 | 9.36 | 0.196 | 137 | 0.2
3 | CC1=Nc2ccc(Cl)cc2S(=O)(=O)N1 | – | – | 100 | –
4 | CC1=NS(=O)(=O)c2cc(Cl)ccc2N1 [DIAZOXIDE] | 8.62 | – | – | –
5 | O=S1(=O)N=C(NC2CCC2)Nc2ccccc21 | – | 1.96 | 109 | 2
6 | O=S1(=O)NC(NC2CCC2)=Nc2ccc(F)cc21 | 9.57 | 0.356 | 136 | 0.398
7 | Nc1ccc2c(c1)S(=O)(=O)NC(NC1CCC1)=N2 | – | 31 | 96.9 | 31.6
8 | COc1ccc2c(c1)S(=O)(=O)NC(NC1CCC1)=N2 | – | 3.87 | 122 | 3.98
